Results: US10251395B2, “Substituted furano-/thienocycloalkylamino-2-pyrimidine derivatives and use thereof for controlling undesired plant growth” (Bayer CropScience Aktiengesellschaft, priority 2015, dated 2019)

Legend:
Format in all cases: in vivo
[1] = system: Echinochloa crus-galli; assay: Pre-emergence herbicidal effect; conditions: scored visually after 3 weeks
Procedure, shortened: (§1)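 Seeds sown in sandy loam in wood-fiber pots and covered with soil; WP or EC formulations applied to the soil surface as aqueous suspension or emulsion at 600 to 800 L/ha water with 0.2% wetting agent. Greenhouse, 3 weeks; damage scored visually versus untreated controls (100% = plants died, 0% = like control).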

[2] = system: Alopecurus myosuroides; assay: Pre-emergence herbicidal effect; conditions: scored visually after 3 weeks
Procedure, shortened: as §1

[3] = system: Lolium multiflorum; assay: Pre-emergence herbicidal effect; conditions: scored visually after 3 weeks
Procedure, shortened: as §1

[4] = system: Abutilon theophrasti; assay: Pre-emergence herbicidal effect; conditions: scored visually after 3 weeks
Procedure, shortened: as §1

[5] = system: Amaranthus retroflexus; assay: Pre-emergence herbicidal effect; conditions: scored visually after 3 weeks
Procedure, shortened: as §1

[6] = system: Matricaria inodora; assay: Pre-emergence herbicidal effect; conditions: scored visually after 3 weeks
Procedure, shortened: as §1

[7] = system: Stellaria media; assay: Pre-emergence herbicidal effect; conditions: scored visually after 3 weeks
Procedure, shortened: as §1

[8] = system: Setaria viridis; assay: Pre-emergence herbicidal effect; conditions: scored visually after 3 weeks
Procedure, shortened: as §1

[9] = system: Viola tricolor; assay: Pre-emergence herbicidal effect; conditions: scored visually after 3 weeks
Procedure, shortened: as §1

[10] = system: Veronica persica; assay: Pre-emergence herbicidal effect; conditions: Dosage 320 g/ha, scored visually after 3 weeks
Procedure, shortened: as §1

[11] = system: Polygonum convolvulus; assay: Pre-emergence herbicidal effect; conditions: scored visually after 3 weeks
Procedure, shortened: as §1

[12] = system: Avena fatua; assay: Pre-emergence herbicidal effect; conditions: Dosage 320 g/ha, scored visually after 3 weeks
Procedure, shortened: as §1

[13] = system: Ipomoea purpurea; assay: Pre-emergence herbicidal effect; conditions: scored visually after 3 weeks
Procedure, shortened: as §1

[14] = system: Echinochloa crus-galli; assay: Post-emergence herbicidal effect; conditions: assessed visually after about 3 weeks vs untreated controls
Procedure, shortened: (§2)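 Visual % damage vs untreated plants, ~3 wk after spraying (100% = dead, 0% = as control). Post-emergence foliar spray at one-leaf stage; WP/EC in water, 600–800 L/ha + 0.2% wetting agent; sandy loam, greenhouse.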

[15] = system: Alopecurus myosuroides; assay: Post-emergence herbicidal effect; conditions: 320 g/ha, assessed visually after about 3 weeks vs untreated controls
Procedure, shortened: as §2

[16] = system: Lolium multiflorum; assay: Post-emergence herbicidal effect; conditions: 320 g/ha, assessed visually after about 3 weeks vs untreated controls
Procedure, shortened: as §2

[17] = system: Abutilon theophrasti; assay: Post-emergence herbicidal effect; conditions: assessed visually after about 3 weeks vs untreated controls
Procedure, shortened: as §2

[18] = system: Amaranthus retroflexus; assay: Post-emergence herbicidal effect; conditions: assessed visually after about 3 weeks vs untreated controls
Procedure, shortened: as §2

[19] = system: Matricaria inodora; assay: Post-emergence herbicidal effect; conditions: assessed visually after about 3 weeks vs untreated controls
Procedure, shortened: as §2

[20] = system: Stellaria media; assay: Post-emergence herbicidal effect; conditions: assessed visually after about 3 weeks vs untreated controls
Procedure, shortened: as §2

[21] = system: Setaria viridis; assay: Post-emergence herbicidal effect; conditions: assessed visually after about 3 weeks vs untreated controls
Procedure, shortened: as §2

[22] = system: Viola tricolor; assay: Post-emergence herbicidal effect; conditions: assessed visually after about 3 weeks vs untreated controls
Procedure, shortened: as §2

[23] = system: Veronica persica; assay: Post-emergence herbicidal effect; conditions: 320 g/ha, assessed visually after about 3 weeks vs untreated controls
Procedure, shortened: as §2

[24] = system: Polygonum convolvulus; assay: Post-emergence herbicidal effect; conditions: 320 g/ha, assessed visually after about 3 weeks vs untreated controls
Procedure, shortened: as §2

[25] = system: Avena fatua; assay: Post-emergence herbicidal effect; conditions: 320 g/ha, assessed visually after about 3 weeks vs untreated controls
Procedure, shortened: as §2

[26] = system: Ipomoea purpurea; assay: Post-emergence herbicidal effect; conditions: assessed visually after about 3 weeks vs untreated controls
Procedure, shortened: as §2

## CC(=O)c1cnc(NC2CCCc3sc(C)cc32)nc1N (stereo not drawn) [compound 283]
[1]; Dosage 80 g/ha
  ECHCG pre-emergence efficacy (herbicidal activity): 100%
[1]; Dosage 320 g/ha
  ECHCG pre-emergence efficacy (herbicidal activity): 100%
[2]; Dosage 80 g/ha
  ALOMY pre-emergence efficacy (herbicidal activity): 80%
[2]; Dosage 320 g/ha
  ALOMY pre-emergence efficacy (herbicidal activity): 100%
[3]; Dosage 80 g/ha
  LOLMU pre-emergence efficacy (herbicidal activity): 100%
[3]; Dosage 320 g/ha
  LOLMU pre-emergence efficacy (herbicidal activity): 100%
[4]; Dosage 80 g/ha
  ABUTH pre-emergence efficacy (herbicidal activity): 90%
[4]; Dosage 320 g/ha
  ABUTH pre-emergence efficacy (herbicidal activity): 100%
[5]; Dosage 80 g/ha
  AMARE pre-emergence efficacy (herbicidal activity): 100%
[5]; Dosage 320 g/ha
  AMARE pre-emergence efficacy (herbicidal activity): 100%
[6]; Dosage 80 g/ha
  MATIN pre-emergence efficacy (herbicidal activity): 100%
[6]; Dosage 320 g/ha
  MATIN pre-emergence efficacy (herbicidal activity): 100%
[7]; Dosage 80 g/ha
  STEME pre-emergence efficacy (herbicidal activity): 100%
[7]; Dosage 320 g/ha
  STEME pre-emergence efficacy (herbicidal activity): 100%
[8]; Dosage 80 g/ha
  SETVI pre-emergence efficacy (herbicidal activity): 100%
[8]; Dosage 320 g/ha
  SETVI pre-emergence efficacy (herbicidal activity): 100%
[9]; Dosage 80 g/ha
  VIOTR pre-emergence efficacy (herbicidal activity): 100%
[9]; Dosage 320 g/ha
  VIOTR pre-emergence efficacy (herbicidal activity): 100%
[10]
  VERPE pre-emergence efficacy (herbicidal activity): 100%
[11]; Dosage 80 g/ha
  POLCO pre-emergence efficacy (herbicidal activity): 100%
[11]; Dosage 320 g/ha
  POLCO pre-emergence efficacy (herbicidal activity): 100%
[12]
  AVEFA pre-emergence efficacy (herbicidal activity): 80%
[13]; Dosage 80 g/ha
  PHBPU pre-emergence efficacy (herbicidal activity): 60%
[13]; Dosage 320 g/ha
  PHBPU pre-emergence efficacy (herbicidal activity): 100%
[14]; 80 g/ha
  post-emergence efficacy ECHCG: 80%
[14]; 320 g/ha
  post-emergence efficacy ECHCG: 100%
[15]
  post-emergence efficacy ALOMY: 90%
[16]
  post-emergence efficacy LOLMU: 100%
[17]; 80 g/ha
  post-emergence efficacy ABUTH: 90%
[17]; 320 g/ha
  post-emergence efficacy ABUTH: 90%
[18]; 80 g/ha
  post-emergence efficacy AMARE: 90%
[18]; 320 g/ha
  post-emergence efficacy AMARE: 100%
[19]; 80 g/ha
  post-emergence efficacy MATIN: 90%
[19]; 320 g/ha
  post-emergence efficacy MATIN: 90%
[20]; 80 g/ha
  post-emergence efficacy STEME: 100%
[20]; 320 g/ha
  post-emergence efficacy STEME: 100%
[21]; 80 g/ha
  post-emergence efficacy SETVI: 50%
[21]; 320 g/ha
  post-emergence efficacy SETVI: 90%
[22]; 80 g/ha
  post-emergence efficacy VIOTR: 90%
[22]; 320 g/ha
  post-emergence efficacy VIOTR: 100%
[23]
  post-emergence efficacy VERPE: 100%
[24]
  post-emergence efficacy POLCO: 70%
[25]
  post-emergence efficacy AVEFA: 80%
[26]; 80 g/ha
  post-emergence efficacy PHBPU: 80%
[26]; 320 g/ha
  post-emergence efficacy PHBPU: 90%
